Data as given in ChEMBL document CHEMBL6078619, “Targeting focal adhesion kinase (FAK) in cancer therapy: A recent update on inhibitors and PROTAC degraders” (Eur J Med Chem, 2024).

Columns and labels:
DLD-1 = experiment: Cytotoxicity against human DLD1 cells assessed as growth inhibition; type: functional, cell-based
HCT-116 [1] = experiment: Cytotoxicity against human HCT-116 cells; type: functional, cell-based
Focal adhesion kinase 1 [2] = biological target: T1, Focal adhesion kinase 1 (Homo sapiens, UniProt Q05397); experiment: Inhibition of FAK (unknown origin) at 0.1 uM relative to control
Target sequence in this assay (Q05397 2-1052 limits assumed): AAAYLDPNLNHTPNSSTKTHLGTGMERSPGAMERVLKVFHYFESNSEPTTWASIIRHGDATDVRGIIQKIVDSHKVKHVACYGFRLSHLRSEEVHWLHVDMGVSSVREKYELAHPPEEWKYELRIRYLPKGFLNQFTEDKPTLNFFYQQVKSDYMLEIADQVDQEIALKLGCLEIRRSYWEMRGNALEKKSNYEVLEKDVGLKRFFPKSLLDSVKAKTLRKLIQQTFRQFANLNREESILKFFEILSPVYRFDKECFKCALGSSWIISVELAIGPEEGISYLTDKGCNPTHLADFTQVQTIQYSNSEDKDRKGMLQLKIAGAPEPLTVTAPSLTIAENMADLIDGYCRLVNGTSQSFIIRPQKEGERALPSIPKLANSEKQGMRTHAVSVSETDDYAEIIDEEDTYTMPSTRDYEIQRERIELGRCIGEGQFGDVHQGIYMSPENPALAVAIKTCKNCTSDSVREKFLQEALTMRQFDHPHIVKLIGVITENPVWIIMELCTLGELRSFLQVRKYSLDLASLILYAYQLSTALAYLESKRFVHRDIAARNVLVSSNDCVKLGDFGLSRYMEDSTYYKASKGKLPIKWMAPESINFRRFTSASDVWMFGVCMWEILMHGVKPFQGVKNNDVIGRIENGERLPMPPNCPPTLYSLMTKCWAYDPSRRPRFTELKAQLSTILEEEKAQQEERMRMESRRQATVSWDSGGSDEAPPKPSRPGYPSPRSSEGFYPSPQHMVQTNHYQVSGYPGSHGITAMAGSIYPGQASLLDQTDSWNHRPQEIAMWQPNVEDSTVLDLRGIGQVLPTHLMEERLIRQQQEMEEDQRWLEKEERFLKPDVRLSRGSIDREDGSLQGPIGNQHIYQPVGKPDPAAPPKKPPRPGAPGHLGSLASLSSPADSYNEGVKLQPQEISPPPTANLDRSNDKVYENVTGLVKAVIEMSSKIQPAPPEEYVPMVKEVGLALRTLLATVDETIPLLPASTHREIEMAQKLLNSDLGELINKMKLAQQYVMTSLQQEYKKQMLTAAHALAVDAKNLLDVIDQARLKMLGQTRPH

Focal adhesion kinase 1 [3] = biological target: T1, Focal adhesion kinase 1; experiment: Inhibition of FAK (unknown origin) at 0.5 uM relative to control
Target sequence in this assay (Q05397 2-1052 limits assumed): as above

[4] = Half life in human plasma; type: ADME, cell-free
[5] = biological target: T2, von Hippel-Lindau disease tumor suppressor/Bromodomain-containing protein 4 (Homo sapiens, UniProt O60885+P40337); experiment: PROTAC activity at BRD4/VHL E3 ligase in human HEK293 cells assessed as maximal degradation of BRD4 at 10 nM incubated for 18 hrs by Nano-Glo HiBiT assay relative to control; type: cell-based
T2 sequence (P40337 whole entry, looked up, other chains not shown): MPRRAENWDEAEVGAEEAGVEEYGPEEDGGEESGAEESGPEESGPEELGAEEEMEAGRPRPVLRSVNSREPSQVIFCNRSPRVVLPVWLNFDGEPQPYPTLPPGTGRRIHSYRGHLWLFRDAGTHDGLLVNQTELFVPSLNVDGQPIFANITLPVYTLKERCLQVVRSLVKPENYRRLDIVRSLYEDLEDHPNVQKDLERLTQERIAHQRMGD

Focal adhesion kinase 1 [6] = biological target: T1, Focal adhesion kinase 1; experiment: Inhibition of FAK (unknown origin)
Target sequence in this assay (Q05397 whole entry): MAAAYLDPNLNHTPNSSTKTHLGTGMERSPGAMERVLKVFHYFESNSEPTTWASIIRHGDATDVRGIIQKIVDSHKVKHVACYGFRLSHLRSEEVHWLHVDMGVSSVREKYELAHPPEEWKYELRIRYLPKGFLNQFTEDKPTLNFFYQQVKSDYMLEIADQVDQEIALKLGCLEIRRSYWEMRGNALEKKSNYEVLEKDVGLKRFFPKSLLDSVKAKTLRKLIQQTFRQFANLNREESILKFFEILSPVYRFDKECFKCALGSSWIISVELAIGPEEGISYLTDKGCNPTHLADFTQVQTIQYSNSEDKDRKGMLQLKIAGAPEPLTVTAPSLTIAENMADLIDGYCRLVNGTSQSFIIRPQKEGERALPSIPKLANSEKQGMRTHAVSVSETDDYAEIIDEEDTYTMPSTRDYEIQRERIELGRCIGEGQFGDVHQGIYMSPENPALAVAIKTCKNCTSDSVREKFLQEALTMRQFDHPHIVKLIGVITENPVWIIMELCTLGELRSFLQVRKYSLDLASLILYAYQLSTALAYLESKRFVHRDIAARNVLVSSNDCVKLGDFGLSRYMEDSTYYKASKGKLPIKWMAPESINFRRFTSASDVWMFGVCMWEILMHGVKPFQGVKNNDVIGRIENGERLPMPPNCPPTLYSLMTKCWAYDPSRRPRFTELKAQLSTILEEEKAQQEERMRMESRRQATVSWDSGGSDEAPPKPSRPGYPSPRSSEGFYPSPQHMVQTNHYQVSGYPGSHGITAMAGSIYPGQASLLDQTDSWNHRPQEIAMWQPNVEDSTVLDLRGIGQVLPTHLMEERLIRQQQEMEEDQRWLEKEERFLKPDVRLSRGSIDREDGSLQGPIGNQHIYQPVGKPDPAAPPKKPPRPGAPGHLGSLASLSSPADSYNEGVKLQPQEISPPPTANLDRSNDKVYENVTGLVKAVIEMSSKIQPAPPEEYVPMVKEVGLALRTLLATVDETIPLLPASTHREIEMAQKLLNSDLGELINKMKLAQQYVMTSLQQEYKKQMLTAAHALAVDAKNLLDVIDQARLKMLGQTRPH

HeLa = experiment: Antiproliferative activity against human HeLa cells assessed as reduction in cell viability by MTT assay; type: functional, cell-based
HCT-116 [7] = experiment: Antiproliferative activity against human HCT-116 cells assessed as reduction in cell viability by MTT assay; type: functional, cell-based
MDA-MB-231 [8] = experiment: Antiproliferative activity against human MDA-MB-231 cells assessed as reduction in cell viability by MTT assay; type: functional, cell-based
Insulin receptor = Insulin receptor (Homo sapiens, UniProt P06213); experiment: Inhibition of INSR (unknown origin)
Insulin receptor, sequence (P06213 28-758 limits assumed): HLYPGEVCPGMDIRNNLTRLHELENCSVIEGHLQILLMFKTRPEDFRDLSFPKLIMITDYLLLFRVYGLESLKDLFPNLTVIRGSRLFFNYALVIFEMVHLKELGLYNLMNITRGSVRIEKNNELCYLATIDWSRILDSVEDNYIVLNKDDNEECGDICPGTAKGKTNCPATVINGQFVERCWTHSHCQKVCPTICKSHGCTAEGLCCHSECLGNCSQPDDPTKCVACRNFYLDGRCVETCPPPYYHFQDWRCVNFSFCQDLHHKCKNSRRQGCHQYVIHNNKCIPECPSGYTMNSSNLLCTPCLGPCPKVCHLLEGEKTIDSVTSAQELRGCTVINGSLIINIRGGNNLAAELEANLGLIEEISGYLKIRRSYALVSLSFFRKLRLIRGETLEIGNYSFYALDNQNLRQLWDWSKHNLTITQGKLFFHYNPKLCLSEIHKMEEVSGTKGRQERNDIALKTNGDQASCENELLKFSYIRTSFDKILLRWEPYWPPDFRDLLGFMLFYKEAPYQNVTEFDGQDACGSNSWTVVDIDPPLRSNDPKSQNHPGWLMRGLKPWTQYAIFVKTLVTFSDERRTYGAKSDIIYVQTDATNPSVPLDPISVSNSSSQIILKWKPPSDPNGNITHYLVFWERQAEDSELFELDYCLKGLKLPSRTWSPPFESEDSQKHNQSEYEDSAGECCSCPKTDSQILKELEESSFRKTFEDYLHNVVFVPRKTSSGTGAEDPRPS
Insulin receptor, sequence (P06213 763-1382 limits assumed): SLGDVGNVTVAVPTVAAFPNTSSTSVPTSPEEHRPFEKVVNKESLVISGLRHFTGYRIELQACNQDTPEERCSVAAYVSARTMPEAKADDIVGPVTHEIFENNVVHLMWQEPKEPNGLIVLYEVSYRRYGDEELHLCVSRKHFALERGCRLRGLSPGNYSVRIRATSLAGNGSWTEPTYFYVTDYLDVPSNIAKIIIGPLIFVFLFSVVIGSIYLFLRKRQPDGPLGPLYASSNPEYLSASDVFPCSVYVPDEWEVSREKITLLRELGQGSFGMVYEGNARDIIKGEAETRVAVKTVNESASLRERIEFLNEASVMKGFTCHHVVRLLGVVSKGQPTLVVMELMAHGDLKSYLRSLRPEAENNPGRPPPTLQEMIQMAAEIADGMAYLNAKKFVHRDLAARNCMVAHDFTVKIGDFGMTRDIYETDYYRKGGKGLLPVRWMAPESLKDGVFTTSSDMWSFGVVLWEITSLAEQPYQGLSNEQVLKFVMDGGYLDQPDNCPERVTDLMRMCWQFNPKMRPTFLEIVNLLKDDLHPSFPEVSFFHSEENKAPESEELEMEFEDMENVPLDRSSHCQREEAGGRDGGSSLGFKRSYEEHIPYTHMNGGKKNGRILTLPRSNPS

[9] = Half life in human at 20 mg/kg, po; type: ADME, organism-based; conditions: in vivo
[10] = Half life in human at 1 mg/kg, iv by LC-MS/MS analysis; type: ADME, organism-based; conditions: in vivo
[11] = Half life in human at 10 mg/kg, po by LC-MS/MS analysis; type: ADME, organism-based; conditions: in vivo
[12] = Oral bioavailability in human at 10 mg/kg; type: ADME, organism-based; conditions: in vivo
A549 [13] = experiment: Antiproliferative activity against human A549 cells assessed as reduction in cell viability incubated for 48 hrs by MTT assay; type: functional, cell-based; conditions: A549, 48 h
U-87 MG = experiment: Antiproliferative activity against human U-87 MG cells assessed as reduction in cell viability incubated for 48 hrs by MTT assay; type: functional, cell-based, U-87MG ATCC
MDA-MB-231 [14] = experiment: Antiproliferative activity against human MDA-MB-231 cells assessed as reduction in cell viability incubated for 48 hrs by MTT assay; type: functional, cell-based; conditions: MDA-MB-231, 48 h
PANC-1 = experiment: Antiproliferative activity against human PANC-1 cells assessed as reduction in cell viability incubated for 48 hrs by MTT assay; type: functional, cell-based; conditions: PANC-1, 48 h
BXPC-3 = experiment: Antiproliferative activity against human BXPC-3 cells assessed as reduction in cell viability incubated for 48 hrs by MTT assay; type: functional, cell-based; conditions: BXPC-3, 48 h
HepG2 [15] = experiment: Antiproliferative activity against human HepG2 cells assessed as reduction in cell viability incubated for 48 hrs by MTT assay; type: functional, cell-based; conditions: HepG2, 48 h
MCF7 [16] = experiment: Antiproliferative activity against human MCF7 cells assessed as reduction in cell viability incubated for 48 hrs by MTT assay; type: functional, cell-based; conditions: MCF7, 48 h
HCT-15 = experiment: Antiproliferative activity against human HCT-15 cells assessed as reduction in cell viability incubated for 48 hrs by MTT assay; type: functional, cell-based; conditions: HCT-15, 48 h
[17] = Antiproliferative activity against human BEAS-2B cells assessed as reduction in cell viability incubated for 48 hrs by MTT assay; type: toxicity, cell-based
[18] = Antiproliferative activity against HUVEC cells assessed as cell growth inhibition measured after 72 hrs by crystal violet staining based analysis; type: toxicity; conditions: human
[19] = biological target: T2, von Hippel-Lindau disease tumor suppressor/Bromodomain-containing protein 4; experiment: PROTAC activity at BRD4/VHL E3 ligase in human HEK293 cells assessed as degradation of BRD4 incubated for 18 hrs by Nano-Glo HiBiT assay; type: cell-based
MGC-803 [20] = experiment: Antitumor activity against human MGC-803 cells xenografted in nude mouse assessed as tumor inhibition at 20 mg/kg, ip administered once every two days for 21 days relative to control; type: functional; design: scale not given: the % may be the effect or the level left; conditions: time 21 day
Histone deacetylase 1 = Histone deacetylase 1 (Homo sapiens, UniProt Q13547); experiment: Inhibition of HDAC1 (unknown origin)
Histone deacetylase 2 = Histone deacetylase 2 (Homo sapiens, UniProt Q92769); experiment: Inhibition of HDAC2 (unknown origin)
Histone deacetylase 2, sequence (Q92769 whole entry): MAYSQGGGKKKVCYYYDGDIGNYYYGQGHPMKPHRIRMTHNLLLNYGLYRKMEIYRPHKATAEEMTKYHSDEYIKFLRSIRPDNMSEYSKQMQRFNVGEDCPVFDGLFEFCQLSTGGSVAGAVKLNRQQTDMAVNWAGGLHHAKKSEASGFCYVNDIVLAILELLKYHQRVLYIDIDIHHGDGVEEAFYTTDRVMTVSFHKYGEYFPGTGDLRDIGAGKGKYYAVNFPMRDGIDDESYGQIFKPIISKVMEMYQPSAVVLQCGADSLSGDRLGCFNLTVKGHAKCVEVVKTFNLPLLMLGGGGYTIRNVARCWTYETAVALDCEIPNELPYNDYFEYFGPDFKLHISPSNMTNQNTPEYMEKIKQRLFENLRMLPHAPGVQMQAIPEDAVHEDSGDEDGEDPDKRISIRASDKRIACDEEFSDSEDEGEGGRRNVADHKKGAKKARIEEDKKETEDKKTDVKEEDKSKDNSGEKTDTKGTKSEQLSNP

Histone deacetylase 3 = Histone deacetylase 3 (Homo sapiens, UniProt O15379); experiment: Inhibition of HDAC3 (unknown origin)
Histone deacetylase 3, sequence (O15379 whole entry): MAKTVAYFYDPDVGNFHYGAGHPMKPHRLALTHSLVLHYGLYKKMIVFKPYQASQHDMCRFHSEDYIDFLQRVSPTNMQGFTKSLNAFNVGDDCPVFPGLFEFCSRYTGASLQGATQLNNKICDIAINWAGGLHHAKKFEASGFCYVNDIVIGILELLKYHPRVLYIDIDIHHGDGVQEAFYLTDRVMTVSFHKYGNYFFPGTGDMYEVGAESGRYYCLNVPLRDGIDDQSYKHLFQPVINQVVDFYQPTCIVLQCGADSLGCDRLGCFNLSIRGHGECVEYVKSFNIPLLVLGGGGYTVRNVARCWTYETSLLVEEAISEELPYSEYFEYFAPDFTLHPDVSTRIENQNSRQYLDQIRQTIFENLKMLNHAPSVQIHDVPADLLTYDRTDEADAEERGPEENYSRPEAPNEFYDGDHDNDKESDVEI

MGC-803 [21] = experiment: Antiproliferative activity against human MGC-803 cells; type: functional, cell-based
HGC-27 = experiment: Antiproliferative activity against human HGC-27 cells; type: functional, cell-based
BGC-823 = experiment: Antiproliferative activity against human BGC-823 cells; type: functional, cell-based
DU-145 = experiment: Antiproliferative activity against human DU-145 cells; type: functional, cell-based
[22] = Antiproliferative activity against human PC-3 cells; type: functional, cell-based
A549 [23] = experiment: Antiproliferative activity against human A549 cells; type: functional, cell-based
NCI-H520 = experiment: Antiproliferative activity against human NCI-H520 cells; type: functional, cell-based
MCF7 [24] = experiment: Antiproliferative activity against human MCF7 cells; type: functional, cell-based
MDA-MB-231 [25] = experiment: Antiproliferative activity against human MDA-MB-231 cells; type: functional, cell-based
ECa-109 cell line = experiment: Antiproliferative activity against human EC109 cells; type: functional, cell-based
TE-1 = experiment: Antiproliferative activity against human TE-1 cells; type: functional, cell-based
KYSE-450 = experiment: Antiproliferative activity against human KYSE-450 cells; type: functional, cell-based
HCT-116 [26] = experiment: Antiproliferative activity against human HCT-116 cells; type: functional, cell-based
A-375 = experiment: Antiproliferative activity against human A-375 cells assessed as reduction in cell viability incubated for 72 hrs by MTT assay; type: functional, cell-based; conditions: A-375, 72 h
MCF7 [27] = experiment: Antiproliferative activity against human MCF7 cells assessed as reduction in cell viability incubated for 72 hrs by MTT assay; type: functional, cell-based; conditions: MCF7, 72 h
HepG2 [28] = experiment: Antiproliferative activity against human HepG2 cells assessed as reduction in cell viability incubated for 72 hrs by MTT assay; type: functional, cell-based; conditions: HepG2, 72 h
SGC-7901 = experiment: Antiproliferative activity against human SGC-7901 cells assessed as reduction in cell viability incubated for 72 hrs by MTT assay; type: functional, cell-based; conditions: SGC-7901, 72 h

COc1cc2nc(-c3ccc(C(F)(F)F)cc3)cc(OCCCN3CCN(C)CC3)c2cc1OC
IC50 (DLD-1): 2250 nM
IC50 (HCT-116 [1]): 3090 nM

CN(c1ncccc1CNc1nc(Nc2ccc(N3CCN(CCCCCCC(=O)NCCNc4cccc5c4C(=O)N(C4CCC(=O)NC4=O)C5=O)CC3)cc2)ncc1C(F)(F)F)S(C)(=O)=O (stereo unspecified)
inhibition (Focal adhesion kinase 1 [2]): 84.4%
inhibition (Focal adhesion kinase 1 [3]): 96.9%
half-life [4]: > 3.25 h
Emax [5]: 85%

CNC(=O)c1ccccc1Nc1nc(Nc2ccc(N3CCN(C(=S)SCCCN4CCOCC4)CC3)cc2)ncc1Cl
IC50 (Focal adhesion kinase 1 [6]): 52 nM
IC50 (HeLa): 2680 nM
IC50 (HCT-116 [7]): 640 nM
IC50 (MDA-MB-231 [8]): 4190 nM
IC50 (Insulin receptor): 168 nM

COc1cc2nc(-c3ccc(C(F)(F)F)cc3)cc(OCCCNC3CCN(C)CC3)c2cc1OC
IC50 (DLD-1): 1790 nM
IC50 (HCT-116 [1]): 3280 nM

Clc1ccc(-c2cc(OCCCN3CCOCC3)c3cc(-c4ccco4)ccc3n2)cc1
IC50 (DLD-1): 2090 nM
IC50 (HCT-116 [1]): 2960 nM

CCCS(=O)(=O)NCC(=O)N1CCN(c2ccc(Nc3ncc(Cl)c(Nc4ccccc4C(=O)NC)n3)cc2)CC1
IC50 (Focal adhesion kinase 1 [6]): 48 nM
IC50 (HeLa): 190 nM
IC50 (HCT-116 [7]): 170 nM
IC50 (MDA-MB-231 [8]): 180 nM
IC50 (Insulin receptor): 107 nM

CNC(=O)c1ccccc1Nc1nc(Nc2ccc(/C=C/C(=O)N3CCOCC3)cc2)ncc1Cl
IC50 (Focal adhesion kinase 1 [6]): 47.2 nM

COc1cc(C(=O)NC2CCNCC2)ccc1Nc1nc(Oc2cccc3c2C(=O)CC3)c2cc[nH]c2n1
half-life [9]: 4.08 h

CC(=O)NCCC(=O)Nc1cc(Nc2ncc(Br)c(Nc3ccc(NC(C)=O)cc3NC(C)=O)n2)ccc1OCCF
IC50 (Focal adhesion kinase 1 [6]): 3.7 nM

Clc1cccc(Cn2ccc3cnc(NC4CCC(N5CCNCC5)CC4)nc32)c1 (stereo unspecified)
IC50 (Focal adhesion kinase 1 [6]): 9.9 nM
half-life [10]: 2.41 h
half-life [11]: 3.8 h
bioavailability [12]: 77.6%
IC50 (A549 [13]): 800 nM
IC50 (U-87 MG): 12700 nM
IC50 (MDA-MB-231 [14]): 1600 nM
IC50 (PANC-1): 3700 nM
IC50 (BXPC-3): 2300 nM
IC50 (HepG2 [15]): 3500 nM
IC50 (MCF7 [16]): 2000 nM
IC50 (HCT-15): 900 nM
IC50 at 48 h [17]: 7100 nM
IC50 at 72 h [18]: 6900 nM

CNC(=O)c1ccccc1Nc1cc(Nc2ccc(N3CCN(CC(=O)N[C@H](C(=O)N4C[C@H](O)C[C@H]4C(=O)N[C@@H](C)c4ccc(-c5scnc5C)cc4)C(C)(C)C)CC3)cc2OC)ncc1C(F)(F)F
DC50 [19]: 8.4 nM

COc1cc2nc(-c3ccc(C(F)(F)F)cc3)cc(OCCCNCC3CCCO3)c2cc1OC (stereo unspecified)
IC50 (DLD-1): 2480 nM
IC50 (HCT-116 [1]): 5680 nM

CNC(=O)c1ccccc1Nc1nc(Nc2ccc(N3CCOCC3)cc2OC)ncc1Cl
Activity (MGC-803 [20]): 53.53%

Cc1ncsc1-c1ccc(CNC(=O)[C@@H]2C[C@@H](O)CN2C(=O)[C@@H](NC(=O)CCOCCOc2ccc(Nc3ncc(C(F)(F)F)c(NCc4cccc(N(C)S(C)(=O)=O)c4)n3)cc2)C(C)(C)C)cc1
DC50 [19]: 3 nM

CNC(=O)c1ccccc1Nc1nc(Nc2ccc(NC(=O)CCCCCCC(=O)NO)cc2)ncc1Cl
IC50 (Histone deacetylase 1): 526 nM
IC50 (Histone deacetylase 2): 629 nM
IC50 (Histone deacetylase 3): 1050 nM
IC50 (MGC-803 [21]): 182 nM
IC50 (HGC-27): 512 nM
IC50 (BGC-823): 194 nM
IC50 (DU-145): 467 nM
IC50 [22]: 667 nM
IC50 (A549 [23]): 1790 nM
IC50 (NCI-H520): 2580 nM
IC50 (MCF7 [24]): 834 nM
IC50 (MDA-MB-231 [25]): 1890 nM
IC50 (ECa-109 cell line): 981 nM
IC50 (TE-1): 1130 nM
IC50 (KYSE-450): 619 nM
IC50 (HCT-116 [26]): 248 nM

O=C(CSC1Nc2ccccc2C(=O)N1c1ccccc1)N1CCN(c2ccccc2Cl)CC1 (stereo unspecified)
IC50 (A-375): 7130 nM
IC50 (MCF7 [27]): 7920 nM
IC50 (HepG2 [28]): 5560 nM
IC50 (SGC-7901): 11700 nM

O=C1CCc2cccc(Oc3nc(Nc4ccc(N5CCN(C(=S)SCCCN6CCOCC6)CC5)cc4)ncc3C(F)(F)F)c21
IC50 (HeLa): 270 nM
IC50 (HCT-116 [7]): 190 nM
IC50 (MDA-MB-231 [8]): 260 nM
IC50 (Insulin receptor): > 1000 nM
